# Literature values in US10434213B2, “Controlled delivery system” (Wake Forest University Health Sciences, priority 2010, dated 2019).
# How the values were obtained:
# [1] = tested on: bone marrow; conditions: White and Olden 1991
# [2] = tested on: colon cancer and melanoma cancers; conditions: combined with interferon, in vivo
# [3] = tested on: IL-1, IL-2, TNF, GM-CSF and interferons; conditions: Newton 1989; Olden 1991
# [4] = tested on: tumor cells; conditions: in vitro
# [5] = tested on: S. aureus 29213; conditions: reported value
Minimum inhibitory concentration (MIC) [5] [µg/mL],Structure (SMILES),Bone marrow proliferation [1],Anti-tumor activity [2],Production of multiple cytokines [3],"B- and T-cell immunity, natural killer T-cell and macrophage-induced destruction of tumor cells [4]"
–,O[C@H]1[C@H]2[C@H](O)CCCN2C[C@H]1O [Swainsonine],capacity to stimulate bone marrow proliferation,direct anti-tumor activity,stimulates,induces
0.25,O=C(O)c1cn(C2CC2)c2cc(N3CCNCC3)c(F)cc2c1=O [ciprofloxacin],–,–,–,–
